Drawing on the OPERA property sets (Mansouri et al. 2018), this text covers logP and solubility for 15 molecules.

≈ marks a conversion by molar mass, not a printed value.

Conditions in one series: not given
As for `CNC(=O)Nc1ccc(Cl)c(Cl)c1`, the logP was 2.94.

`COc1ccc(NC(=O)N(C)C)cc1` registered a logP of 0.83.

Take `COc1cccc(NC(=O)N(C)C)c1`: the logP worked out at 1.73.

For the molecule `O=C(Nc1ccccc1)NC1CCCC1`, the logP was determined as 2.65.

`CNC(=O)Nc1ccc(C)c(Cl)c1` displayed a logP of 2.61.

Take `NC(=O)Nc1cccc(C(F)(F)F)c1`: the lipophilicity (logP) amounted to 2.31.

`CCCCOC(=O)Nc1ccccc1` registered a logP of 3.3.

`Cc1cc(NC(N)=O)ccc1F` displayed a logP of 1.59.

As for `O=[N+]([O-])c1ccc(Br)c(Cl)c1`, the logP came out at 3.25.

As for `CCCOC(=O)Nc1ccccc1`, the logP is 2.8.

On to `CNC(=O)Nc1cccc(Cl)c1`, for which the log partition coefficient (logP) was 2.18.

In turn, `CON(C)C(=O)Nc1ccc(Br)cc1` showed a logP of 2.38.

Molecule `COc1ccc(NC(N)=O)cc1Cl` yielded a logP of 1.37.

Staying with this series, now noted: 25 °C.
In turn, `CC(=O)Nc1cccc(C)c1` had a solubility of 8.11 mM (≈ 1210 µg/mL).

`CC(=O)Nc1ccccc1Cl` gave a solubility of 39.8 mM (≈ 6750 µg/mL).
